This note sets out measurements from patent US7538072B2, “Stem/leaf desiccant” (Sumitomo Chemical Company, Limited, priority 2001, dated 2009).

The subject of data set [1] is potato plants. Put plainly: Field test of desiccant effect on potato plants (foliar spray before harvest). The data set is classed as in vivo. The settings on record: application amount 10 g/ha; emulsifiable concentrate diluted with water containing 1% (v/v) crop oil concentrate, sprayed at the time of foliage turning yellow; examined 14 day after treatment; average of 3 sections. The text has this:
Seed potatoes were planted on a field and grown. At the time of the foliage turning yellow, 2.5 parts of each of compounds a-5 and a-6, 10 parts of Sorpol 3890 (Toho Chemical Industry Co., Ltd.), and 87.5 parts of SOLVESSO 200 (Exxon Mobile Chemical Company) were well mixed to give an emulsifiable concentrate for each compound, diluted at a prescribed dose with water containing 1% (v/v) crop oil concentrate (COC), and the dilution was uniformly sprayed to the plants. One section of the treated field are 2.1×15.2 m in area, and the potato plants on 14 day after the treatment were examined for the desiccant effect. In the table, the desiccation effect was evaluated with following criteria.
1: The desiccated area of foliage is 0 to 29%
2: The desiccated area of foliage is 30 to 69%
3: The desiccated area of foliage is 70 to 89%
4: The desiccated area of foliage is 90 to 99%
5: The desiccated area of foliage is 100%
The treatment was done in 3 sections, the result was indicated with an average of the 3 sections.

Usually melting point stands for the temperature of the solid-liquid transition. Take `COC(=O)COc1ncccc1Oc1cc(-n2c(=O)cc(C(F)(F)F)n(C)c2=O)c(F)cc1Cl` [Compound a-6, methyl [3-{2-chloro-4-fluoro-5-[3-methyl-2,6-dioxo-4-(trifluoromethyl)-1,2,3,6-tetrahydropyrimidin-1-yl]phenoxy}-2-pyridyloxy]acetate]: the melting point worked out at 52.2 °C. Moreover, the Desiccation effect in data set [1] is reported as 5 (The desiccated area of foliage is 100%).

For `COC(=O)COc1ccccc1Oc1cc(-n2c(=O)cc(C(F)(F)F)n(C)c2=O)c(F)cc1Cl` [Compound a-5, methyl [2-{2-chloro-4-fluoro-5-[3-methyl-2,6-dioxo-4-(trifluoromethyl)-1,2,3,6-tetrahydropyrimidin-1-yl]phenoxy}phenoxy]acetate], the Desiccation effect in data set [1] is given as 5 (The desiccated area of foliage is 100%).
